Measured values reported in patent US20110045101A1, “FUNGICIDAL SUBSTITUTED AZOLES” (E.I. Du Pont De Nemours and Company, priority 2009, published 2011).
Marks after values point to notes of the source that are not given here.

How the values were obtained:
Assay type in all cases: in vivo
Conditions in all cases: 100 = 100% disease control
[1] = system: Puccinia recondita f. sp. tritici; test: Test I: wheat leaf rust on wheat seedlings, sprayed the day before inoculation, visual disease rating
Summary of the method: (§1)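 Plants received a run-off spray at 200 ppm (equivalent to 500 g/ha) or, for starred values, 40 ppm. Formulation used acetone at 3% of volume in a 50/50 acetone/water mix carrying 250 ppm Trem® 014.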

[2] = system: Erysiphe graminis f. sp. tritici; test: Test J: wheat powdery mildew on wheat seedlings, sprayed the day before inoculation, visual disease rating
Summary of the method: as §1

Septoria nodorum = test: Test F: wheat glume blotch on wheat seedlings, sprayed the day before inoculation, visual disease rating
Summary of the method: as §1

[3] = system: Puccinia recondita f. sp. tritici; test: Test H: wheat leaf rust, test suspension sprayed after inoculation of wheat seedlings, visual disease rating
Summary of the method: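 Wheat seedlings inoculated with P. recondita spores, held 24 h saturated at 20 °C, then 2 days in growth chamber at 20 °C; compound suspension (acetone/water with Trem 014) sprayed to run-off afterwards. Rated visually; 200 ppm (≈500 g/ha) unless marked *, which denotes 40 ppm.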

Alternaria solani = test: Test D: tomato early blight, sprayed the day before inoculation, visual disease rating
Summary of the method: as §1

Septoria tritici = test: Test G: wheat leaf blotch on wheat seedlings, sprayed the day before inoculation, visual disease rating
Summary of the method: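 Compounds dissolved in acetone (3% of final volume), then suspended in 50/50 acetone/water with 250 ppm Trem® 014 and sprayed to run-off on seedlings at 200 ppm (≈500 g/ha) or 40 ppm where marked. Inoculation with spores followed next day; visual rating after 48 h saturated at 24° C plus 19 days at 20° C.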

Botrytis cinerea = test: Test C: tomato Botrytis on tomato seedlings, sprayed the day before inoculation, visual disease rating
Summary of the method: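 Rate: 200 ppm sprayed to run-off, corresponding to 500 g/ha; flagged values used 40 ppm. Vehicle was aqueous acetone (1:1) plus 250 ppm surfactant, compounds predissolved in acetone at 3% of volume. Plants were tomato seedlings.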

[4] = 40 ppm (marked *), 0 = no control
[5] = 200 ppm, 0 = no control relative to controls

Compound	Test I disease control rating [1, 5] [%]	Test J disease control rating [2, 5] [%]	Test F disease control rating (Septoria nodorum; [5]) [%]	Test H disease control rating [3, 5] [%]	Test D disease control rating (Alternaria solani; [5]) [%]	Test G disease control rating (Septoria tritici; [5]) [%]	Test C disease control rating (Botrytis cinerea; [5]) [%]	other results
Fc1ccc(F)c(-c2c(Br)nc(Br)n2-c2ccc(Cl)cc2)c1F [compound 383]								Test I disease control rating [1, 4]: 91* %; Test J disease control rating [2, 4]: 98* %; Test F disease control rating (Septoria nodorum; [4]): 35* %; Test H disease control rating [3, 4]: 0* %; Test D disease control rating (Alternaria solani; [4]): 99* %; Test G disease control rating (Septoria tritici; [4]): 96* %; Test C disease control rating (Botrytis cinerea; [4]): 100* %
COc1cc(F)c(-c2c(Cl)ncn2Cc2ccc(C)cc2)c(F)c1 [compound 274]								Test I disease control rating ([1]; 200 ppm, 0 = no control): 99%; Test J disease control rating ([2]; 200 ppm, 0 = no control): 77%; Test F disease control rating (Septoria nodorum; 200 ppm, 0 = no control): 51%; Test H disease control rating ([3]; 200 ppm, 0 = no control): 48%; Test D disease control rating (Alternaria solani; 200 ppm, 0 = no control): 100%; Test G disease control rating (Septoria tritici; 200 ppm, 0 = no control): 94%; Test C disease control rating (Botrytis cinerea; 200 ppm, 0 = no control): 100%
COCc1nc(Cl)n(-c2c(F)cccc2F)c1-c1ccc(Cl)cc1 [compound 467]								Test I disease control rating ([1]; 40 ppm (marked *)): 71* %; Test J disease control rating ([2]; 40 ppm (marked *)): 96* %; Test F disease control rating (Septoria nodorum; 40 ppm (marked *)): 0* %; Test H disease control rating ([3]; 40 ppm (marked *)): 0* %; Test D disease control rating (Alternaria solani; 40 ppm (marked *)): 0* %; Test G disease control rating (Septoria tritici; 40 ppm (marked *)): 32* %; Test C disease control rating (Botrytis cinerea; 40 ppm (marked *)): 94* %
Cc1ncn(-c2ccc(Cl)cn2)c1-c1c(F)cccc1F [compound 320]	28	99	0	0	67	100	99	
Cc1nc(Cl)c(-c2c(F)cccc2F)n1-c1ccc(Cl)nc1 [compound 666]	100	100	99	100	100	99	100	
COc1cc(F)c(-c2c(Cl)nc(Br)n2-c2ccc(C)c(I)c2)c(F)c1 [compound 655]								Test I disease control rating ([1]; 40 ppm (marked *)): 9* %; Test J disease control rating ([2]; 40 ppm (marked *)): 0* %; Test F disease control rating (Septoria nodorum; 40 ppm (marked *)): 0* %; Test H disease control rating ([3]; 40 ppm (marked *)): 49* %; Test D disease control rating (Alternaria solani; 40 ppm (marked *)): 0* %; Test G disease control rating (Septoria tritici; 40 ppm (marked *)): 97* %; Test C disease control rating (Botrytis cinerea; 40 ppm (marked *)): 8* %
Fc1cc(-n2c(Cl)nc(Cl)c2-c2cnc3ccccc3c2)ccc1Cl [compound 436]	0	0	0	0	98	81	87	
Cc1nc(Cl)c(-c2c(F)cc(F)cc2F)n1-c1ccc(OC(F)F)cc1 [compound 610]	100	100	99	100	100	99	99	
COc1cc(F)c(-c2c(Br)nn(C)c2-c2ccc(Cl)cc2)c(F)c1 [compound 424]	94	100	99	0	100	100	100	
Cc1ccc(-n2c(Cl)nc(Cl)c2-c2c(F)ccc(C#N)c2F)cc1 [compound 680]	100	100	98	0	100	100	99	
Cc1ncc(Cc2c(F)cc(F)cc2F)n1-c1cc(Cl)cc(Cl)c1 [compound 539]	93	95	0	0	0	7	36	
COc1ccc(F)c(-c2c(Cl)nc(Br)n2-c2ccc(C#N)cc2)c1F [compound 596]	74	97	0	0	73	98	94	
